Data: ChEMBL document CHEMBL1201862, “PubChem BioAssay data set” (2004)
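48-hour exposure; five concentrations; linearly interpolated endpoints. The concentration for 50% growth inhibition is given as GI50.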 Active and inactive are the calls of the source. Cut-off read from the data, not from the text of the source: active = GI50 up to about 1.1 µM and inactive = higher.

Key:
Experiment in all cases: NCI-60 cell line screen, 48 h
786-0 = test system: 786-0
ACHN = test system: ACHN
CCRF-CEM = test system: CCRF-CEM
EKVX = test system: EKVX
HOP-62 = test system: HOP-62
MOLT-4 = test system: MOLT-4
Malme-3M = test system: Malme-3M
OVCAR-3 = test system: OVCAR-3
OVCAR-4 = test system: OVCAR-4
OVCAR-8 = test system: OVCAR-8
RXF 393 = test system: RXF 393
SK-MEL-2 = test system: SK-MEL-2
SNB-75 = test system: SNB-75
TK-10 = test system: TK-10
UACC-62 = test system: UACC-62
CAKI-1 = test system: CAKI-1

SMILES	GI50 (786-0)	GI50 (ACHN)	GI50 (CCRF-CEM)	GI50 (EKVX)	GI50 (HOP-62)	GI50 (MOLT-4)	GI50 (Malme-3M)	GI50 (OVCAR-3)	GI50 (OVCAR-4)	GI50 (OVCAR-8)	GI50 (RXF 393)	GI50 (SK-MEL-2)	GI50 (SNB-75)	GI50 (TK-10)	GI50 (UACC-62)	GI50 (CAKI-1)
CC(=O)NC1=C(NCc2ccc(Cl)cc2)C(=O)c2ccccc2C1=O	8.77 µM (inactive)	1.84 µM (inactive)	8.53 µM (inactive)	7.62 µM (inactive)	12.5 µM (inactive)	2.38 µM (inactive)	9.4 µM (inactive)	6.4 µM (inactive)	6.85 µM (inactive)	7.45 µM (inactive)	4.24 µM (inactive)	5.62 µM (inactive)	7.08 µM (inactive)	8.24 µM (inactive)	2.61 µM (inactive)	
CCCCN(CCCC)c1c([N+](=O)[O-])c(=O)nc2ccccn12	34 µM (inactive)	35.2 µM (inactive)	44.6 µM (inactive)	32.8 µM (inactive)	32.6 µM (inactive)	37.7 µM (inactive)	> 100 µM (inactive)	45.8 µM (inactive)		27.5 µM (inactive)		31 µM (inactive)	30.8 µM (inactive)	46.9 µM (inactive)	36.7 µM (inactive)	> 10 µM (inactive)
N=C(N)NS(=O)(=O)c1ccc(NCCc2c3ccccc3nc3ccccc23)cc1	> 100 µM (inactive)	> 100 µM (inactive)	94 µM (inactive)	> 100 µM (inactive)	> 100 µM (inactive)	22.8 µM (inactive)	> 100 µM (inactive)	> 100 µM (inactive)	1.31 µM (inactive)	> 100 µM (inactive)	> 100 µM (inactive)	> 100 µM (inactive)	> 100 µM (inactive)	> 100 µM (inactive)		87.1 µM (inactive)
CCOc1ccc2nc(NC(=O)c3c/c(=N\NC(=O)C[N+](C)(C)C)c4ccc(O)cc4o3)sc2c1	3.62 µM (inactive)	4.52 µM (inactive)	1.6 µM (inactive)	4.44 µM (inactive)		1.72 µM (inactive)	1.28 µM (inactive)	0.13 µM (active)	1.74 µM (inactive)	2.14 µM (inactive)	5.87 µM (inactive)	2.43 µM (inactive)	1.52 µM (inactive)	21.7 µM (inactive)	1.65 µM (inactive)	6.04 µM (inactive)
CC(C)Cc1ccc(C(C)/C=C2\CCC(CN3CCCC3)C2=O)cc1 (centres undefined)	1.85 µM (inactive)	11.7 µM (inactive)	2.22 µM (inactive)	18.2 µM (inactive)	12.3 µM (inactive)	2.67 µM (inactive)	20.4 µM (inactive)	3.69 µM (inactive)	13.3 µM (inactive)	7.01 µM (inactive)	18.8 µM (inactive)	17.7 µM (inactive)	14.1 µM (inactive)	3.69 µM (inactive)	15.7 µM (inactive)	13.6 µM (inactive)
CCC12CCCN(Cc3ccccc3)C1c1c(n(C)c3ccccc13)C(CO)C2 (centres undefined)	44.1 µM (inactive)		83 µM (inactive)	71.9 µM (inactive)	37.6 µM (inactive)	22.4 µM (inactive)	46.6 µM (inactive)	36.1 µM (inactive)		63.4 µM (inactive)	72.1 µM (inactive)	55.7 µM (inactive)		64.9 µM (inactive)	51.3 µM (inactive)	92.7 µM (inactive)
Cc1cc(C)nc(NS(=O)(=O)c2ccc(NC(=O)c3ccc(Cl)c4c(Nc5ccc(S(=O)(=O)N=C(N)N)cc5)c5ccccc5nc34)cc2)n1	32.7 µM (inactive)	> 100 µM (inactive)		> 100 µM (inactive)	> 100 µM (inactive)	19.5 µM (inactive)	> 100 µM (inactive)	44.3 µM (inactive)	59.2 µM (inactive)	8.65 µM (inactive)	> 10 µM (inactive)		> 100 µM (inactive)	33.9 µM (inactive)	36.3 µM (inactive)	> 100 µM (inactive)
CN(CC#N)C1CCCC[C@H]1O (some centres undefined)	> 100 µM (inactive)	> 100 µM (inactive)	> 100 µM (inactive)	> 100 µM (inactive)	> 100 µM (inactive)	> 100 µM (inactive)	> 100 µM (inactive)	> 100 µM (inactive)	> 100 µM (inactive)	> 100 µM (inactive)	> 100 µM (inactive)	> 100 µM (inactive)	> 100 µM (inactive)	> 100 µM (inactive)	> 100 µM (inactive)	> 100 µM (inactive)
COC(=O)C1=C(C(=O)OC)C2(OC(C)=O)c3ccccc3-c3ccccc3C12 (centres undefined)	4.23 µM (inactive)	2.54 µM (inactive)	0.733 µM (active)	10.6 µM (inactive)	20 µM (inactive)	1.96 µM (inactive)	2.25 µM (inactive)	5.53 µM (inactive)	2.47 µM (inactive)	5.93 µM (inactive)	4.8 µM (inactive)	14.5 µM (inactive)	11.7 µM (inactive)	3.6 µM (inactive)	11 µM (inactive)	2.16 µM (inactive)
